Measurements published in ChEMBL document CHEMBL1201862, “PubChem BioAssay data set” (2004).
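Dose response: 5 concentrations. Exposure: 48 h. Format: 96-well plates. Endpoint: linear interpolation; highest concentration if not reached. GI50 is the concentration that inhibits growth by half.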 Activity calls are given as the source filed them. Rule as the data show it: active = GI50 up to about 1.1 µM and inactive = higher.

Assays:
Experiment in all cases: DTP human tumour cell line panel, 48 h
786-0 = system: 786-0
A498 = system: A498
A549 = system: A549
ACHN = system: ACHN
BT-549 = system: BT-549
CAKI-1 = system: CAKI-1
CCRF-CEM = system: CCRF-CEM
COLO 205 = system: COLO 205
DU-145 = system: DU-145
EKVX = system: EKVX
HCC 2998 = system: HCC 2998
HCT-116 = system: HCT-116
HCT-15 = system: HCT-15
HL-60 = system: HL-60
HOP-62 = system: HOP-62
HOP-92 = system: HOP-92
HT-29 = system: HT-29
Hs-578T = system: Hs-578T
IGROV-1 = system: IGROV-1
K562 = system: K562
KM12 = system: KM12
LOX IMVI = system: LOX IMVI
M14 = system: M14
MCF7 = system: MCF7
MDA-MB-231 = system: MDA-MB-231
MDA-MB-435 = system: MDA-MB-435
MDA-N = system: MDA-N
MOLT-4 = system: MOLT-4
Malme-3M = system: Malme-3M
NCI-H226 = system: NCI-H226
NCI-H23 = system: NCI-H23
NCI-H460 = system: NCI-H460
NCI-H522 = system: NCI-H522
NCI/ADR-RES = system: NCI/ADR-RES
OVCAR-3 = system: OVCAR-3
OVCAR-4 = system: OVCAR-4
OVCAR-5 = system: OVCAR-5
OVCAR-8 = system: OVCAR-8
PC-3 = system: PC-3
RXF 393 = system: RXF 393
SF-268 = system: SF-268
SF-295 = system: SF-295
SF-539 = system: SF-539
SK-MEL-28 = system: SK-MEL-28
SK-MEL-2 = system: SK-MEL-2
SK-MEL-5 = system: SK-MEL-5
SK-OV-3 = system: SK-OV-3
SN12C = system: SN12C
SNB-19 = system: SNB-19
SNB-75 = system: SNB-75
SR = system: SR
SW-620 = system: SW-620
TK-10 = system: TK-10
U-251 = system: U-251
UACC-257 = system: UACC-257
UACC-62 = system: UACC-62
UO-31 = system: UO-31

**Q.** For `CSCCCNC(=O)[C@H](CSC)NC(=O)c1csc(CCNC(=O)[C@@H](NSc2ccccc2[N+](=O)[O-])C(C)O)n1` (some centres not stated), which GI50 (786-0) is on record?
**A.** > 100 µM (inactive)

**Q.** And the GI50 (A498)?
**A.** > 100 µM (inactive)

**Q.** And the GI50 (A549)?
**A.** > 100 µM (inactive)

**Q.** And the GI50 (ACHN)?
**A.** > 100 µM (inactive)

**Q.** And the GI50 (BT-549)?
**A.** > 100 µM (inactive)

**Q.** And the GI50 (CAKI-1)?
**A.** > 100 µM (inactive)

**Q.** And the GI50 (CCRF-CEM)?
**A.** > 100 µM (inactive)

**Q.** And the GI50 (COLO 205)?
**A.** > 100 µM (inactive)

**Q.** And the GI50 (DU-145)?
**A.** > 100 µM (inactive)

**Q.** What about the GI50 (EKVX) of the same compound?
**A.** > 100 µM (inactive)

**Q.** And the GI50 (HCC 2998)?
**A.** > 100 µM (inactive)

**Q.** What about the GI50 (HCT-116) of the same compound?
**A.** > 100 µM (inactive)

**Q.** What about the GI50 (HCT-15) of the same compound?
**A.** > 100 µM

**Q.** What about the GI50 (HL-60) of the same compound?
**A.** > 100 µM (inactive)

**Q.** What about the GI50 (HOP-62) of the same compound?
**A.** > 100 µM (inactive)

**Q.** And the GI50 (HOP-92)?
**A.** > 100 µM (inactive)

**Q.** And the GI50 (HT-29)?
**A.** > 100 µM (inactive)

**Q.** And the GI50 (Hs-578T)?
**A.** > 100 µM (inactive)

**Q.** And the GI50 (IGROV-1)?
**A.** > 100 µM (inactive)

**Q.** What about the GI50 (K562) of the same compound?
**A.** > 100 µM (inactive)

**Q.** What about the GI50 (KM12) of the same compound?
**A.** > 100 µM (inactive)

**Q.** And the GI50 (LOX IMVI)?
**A.** > 100 µM (inactive)

**Q.** And the GI50 (M14)?
**A.** > 100 µM (inactive)

**Q.** What about the GI50 (MCF7) of the same compound?
**A.** > 100 µM (inactive)

**Q.** What about the GI50 (MDA-MB-231) of the same compound?
**A.** > 100 µM (inactive)

**Q.** And the GI50 (MDA-MB-435)?
**A.** > 100 µM (inactive)

**Q.** And the GI50 (MDA-N)?
**A.** > 100 µM (inactive)

**Q.** What about the GI50 (MOLT-4) of the same compound?
**A.** > 100 µM (inactive)

**Q.** What about the GI50 (Malme-3M) of the same compound?
**A.** > 100 µM (inactive)

**Q.** What about the GI50 (NCI-H226) of the same compound?
**A.** > 100 µM (inactive)

**Q.** And the GI50 (NCI-H23)?
**A.** > 100 µM (inactive)

**Q.** And the GI50 (NCI-H460)?
**A.** > 100 µM (inactive)

**Q.** What about the GI50 (NCI-H522) of the same compound?
**A.** > 100 µM (inactive)

**Q.** What about the GI50 (NCI/ADR-RES) of the same compound?
**A.** > 100 µM (inactive)

**Q.** What about the GI50 (OVCAR-3) of the same compound?
**A.** > 100 µM (inactive)

**Q.** And the GI50 (OVCAR-4)?
**A.** > 100 µM (inactive)

**Q.** And the GI50 (OVCAR-5)?
**A.** > 100 µM (inactive)

**Q.** And the GI50 (OVCAR-8)?
**A.** > 100 µM (inactive)

**Q.** What about the GI50 (PC-3) of the same compound?
**A.** > 100 µM (inactive)

**Q.** And the GI50 (RXF 393)?
**A.** > 100 µM (inactive)

**Q.** And the GI50 (SF-268)?
**A.** > 100 µM (inactive)

**Q.** And the GI50 (SF-295)?
**A.** > 100 µM (inactive)

**Q.** And the GI50 (SF-539)?
**A.** > 100 µM (inactive)

**Q.** What about the GI50 (SK-MEL-28) of the same compound?
**A.** > 100 µM (inactive)

**Q.** What about the GI50 (SK-MEL-2) of the same compound?
**A.** > 100 µM (inactive)

**Q.** And the GI50 (SK-MEL-5)?
**A.** > 100 µM (inactive)

**Q.** And the GI50 (SK-OV-3)?
**A.** > 100 µM (inactive)

**Q.** What about the GI50 (SN12C) of the same compound?
**A.** > 100 µM (inactive)

**Q.** What about the GI50 (SNB-19) of the same compound?
**A.** > 100 µM (inactive)

**Q.** And the GI50 (SNB-75)?
**A.** 28.2 µM (inactive)

**Q.** What about the GI50 (SR) of the same compound?
**A.** > 100 µM (inactive)

**Q.** What about the GI50 (SW-620) of the same compound?
**A.** > 100 µM (inactive)

**Q.** What about the GI50 (TK-10) of the same compound?
**A.** > 100 µM (inactive)

**Q.** And the GI50 (U-251)?
**A.** > 100 µM (inactive)

**Q.** What about the GI50 (UACC-257) of the same compound?
**A.** > 100 µM (inactive)

**Q.** And the GI50 (UACC-62)?
**A.** > 100 µM (inactive)

**Q.** What about the GI50 (UO-31) of the same compound?
**A.** > 100 µM (inactive)
